This experiment has as its target T1, glutathione-S-transferase-labeled FXR human protein (Homo sapiens, UniProt Q96RI1).
T1 construct: purchased Invitrogen
T1 sequence (Q96RI1 1-486): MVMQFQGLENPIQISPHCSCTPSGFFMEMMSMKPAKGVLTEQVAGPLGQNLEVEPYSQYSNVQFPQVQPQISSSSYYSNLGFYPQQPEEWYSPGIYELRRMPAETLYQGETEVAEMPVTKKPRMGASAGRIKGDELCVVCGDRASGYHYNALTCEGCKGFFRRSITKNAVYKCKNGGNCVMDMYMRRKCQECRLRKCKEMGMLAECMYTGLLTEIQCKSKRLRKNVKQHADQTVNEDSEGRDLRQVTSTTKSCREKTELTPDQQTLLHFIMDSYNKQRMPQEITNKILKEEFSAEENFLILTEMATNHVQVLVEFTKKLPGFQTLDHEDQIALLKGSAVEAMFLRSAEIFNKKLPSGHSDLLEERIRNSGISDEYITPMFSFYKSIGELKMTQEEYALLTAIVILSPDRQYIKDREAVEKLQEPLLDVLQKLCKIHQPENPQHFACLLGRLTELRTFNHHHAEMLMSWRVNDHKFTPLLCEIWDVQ
As to the kind of experiment: FXR biochemical experiment (alphascreen, coactivator recruitment). The following applies: for EC50: alphascreen, activation of FXR binding reaction with steroid receptor coactivator, read-out: FXR enzyme activity EC50; for Emax: read-out: FXR enzyme activity Efficacy (activation efficacy percent). Here is the method: FXR Biochemical Experiment
To test the effect of the compound on the activation of the FXR binding reaction by a Homogenous Proximity Luminescent Amplified Assay (alphascreen).
1. Protein: glutathione-S-transferase-labeled FXR human protein (Invitrogen)
2. Coactivator: biotin-labeled steroid receptor coactivator (Anaspec)
3. Detection reagent: Homogenous Proximity Luminescent Amplified Assay (alphascreen) detection kit (PerkinElmer)
1. Dilution of compounds: The test compound was prepared as a 40 μM DMSO solution, which was then diluted 3-fold to 10 concentration points. The reference compound was prepared as a 400 μM DMSO solution, and then was 1.5-fold diluted to 10 concentration points. The diluted DMSO solution was added to the micro-wells of a 384-well plate at a volume of 150 nl per well.
2. Glutathione-S-transferase-labeled FXR human protein and biotin-labeled steroid receptor coactivator were prepared to a mixed solution at a concentration of 0.4 nM and 30 nM, respectively. The mixed solution was added to the micro-wells of the 384-well plate at a volume of 15 μL per well, and incubated for 1 hour at room temperature.
3. […] The experiment process was protected from light. It was incubated for 1 hour at room temperature.
4. […] The experiment process was protected from light. It was incubated for 1 hour at room temperature.
5. EC50 test: Envision was used to excite at 680 nm and the […] signal at 520-620 nm was read.
6. Data analysis: Data analysis was conducted using Prism 5.0 to calculate the EC50 value of the activation effect of the compound.
A general note: Bead proximity is the source of the signal in Alpha formats.

The mark [1] stands for this setting: highest signal relative to reference compound chenodeoxycholic acid (Examples 1-30).
Setting [2] is: highest signal relative to reference compound obeticholic acid (Examples 31-47).

The structures appear in SMILES notation. Where two headings read alike, the source gives them in different places.

As usually defined, the EC50 is the concentration at which the effect is half-maximal.

Turning to `Cc1sc(N2C(=O)C3(CC3)c3cc(OCc4c(-c5c(Cl)cccc5Cl)noc4C4CC4)ccc32)nc1C(=O)O` [Compound 8], the EC50 came to 0.82 µM. In addition, under setting [1], the Emax was found to be 35%.
On to `CC1(C)C(=O)N(Cc2cccc(C(=O)O)c2)c2ccc(OCc3c(-c4c(Cl)cccc4Cl)noc3C3CC3)cc21` [Compound 14], for which the EC50 came to 0.2 µM. For the same molecule, the Emax under setting [1] came out at 136%.
Consider `COc1cc(N2C(=O)C3(CC3)c3cc(OCc4c(-c5c(Cl)cccc5Cl)noc4C4CC4)ccc32)ccc1C(=O)O` [Compound 9], for which the EC50 was found to be 1.56 µM. The Emax under setting [1] was 229%.
As for `O=C(O)c1ccc(N2C(=O)CCc3cc(OCc4c(-c5c(Cl)cccc5Cl)noc4C4CC4)ccc32)cc1O` [Compound 47], the half-maximal effective concentration (EC50) was 0.02 µM. The Emax under setting [2] came to 153%.
On to `O=C(O)c1csc(N2C(=O)C3(CC3)c3cc(OCc4c(-c5c(Cl)cccc5Cl)noc4C4CC4)ccc32)c1` [Compound 23], for which the EC50 came out at 0.31 µM. The Emax under setting [1] turned out to be 120%.
As for `O=C(O)C12CC(CN3C(=O)C4(CC4)c4cc(OCc5c(-c6c(Cl)cccc6Cl)noc5C5CC5)ccc43)(C1)C2` [Compound 19], the EC50 turned out to be 2.56 µM. In addition, the Emax under setting [1] is 95%.
Take `O=C(O)c1ccc(N2C(=O)CCc3cc(OCc4c(-c5c(Cl)cccc5Cl)noc4C4CC4)ccc32)c(F)c1` [Compound 34]: the EC50 amounted to 0.127 µM. Also, the Emax under setting [2] was determined as 140%.
With `O=C(O)c1ccccc1N1C(=O)C2(CC2)c2cc(OCc3c(-c4c(Cl)cccc4Cl)noc3C3CC3)ccc21` [Compound 26], the EC50 came to 6.43 µM. Also, the Emax under setting [1] turned out to be 21%.
Turning to `O=C(O)c1cc(N2C(=O)CCc3cc(OCc4c(-c5c(Cl)cccc5Cl)noc4C4CC4)ccc32)ccc1F` [Compound 42], the EC50 was found to be 0.189 µM. Under setting [2], the Emax amounted to 137%.
Consider `Cn1cc(C(=O)O)c2ccc(N3C(=O)C4(CC4)c4cc(OCc5c(-c6c(Cl)cccc6Cl)noc5C5CC5)ccc43)cc21` [Compound 4], for which the EC50 was 0.2 µM. The Emax under setting [1] was determined as 256%.
In the case of `O=C(O)c1ccc(N2C(=O)C3(CC3)c3cc(OCc4c(-c5c(Cl)cccc5Cl)noc4C4CC4)cnc32)cc1` [Compound 30], the EC50 came to 1.53 µM. For the same molecule, the Emax under setting [1] was 228%.
`O=C(O)C1CCC(CN2C(=O)C3(CC3)c3cc(OCc4c(-c5c(Cl)cccc5Cl)noc4C4CC4)ccc32)CC1` (single isomer, unassigned) [Compound 21]: the EC50 was 0.95 µM. Moreover, the “FXR enzyme activity Efficacy (activation efficacy percent)” value under setting [1] is on record as 96%.
Turning to `O=C(O)CCN1C(=O)C2(CC2)c2cc(OCc3c(-c4c(Cl)cccc4Cl)noc3C3CC3)ccc21` [Compound 17], the EC50 turned out to be 1.88 µM. For the same molecule, the Emax under setting [1] turned out to be 169%.
As for `N#Cc1cc(C(=O)O)ccc1N1C(=O)CCc2cc(OCc3c(-c4c(Cl)cccc4Cl)noc3C3CC3)ccc21` [Compound 39], the EC50 was found to be 0.035 µM. For the same molecule, the Emax under setting [2] is 140%.
As to `O=C(O)C1CCC(CN2C(=O)C3(CC3)c3cc(OCc4c(-c5c(Cl)cccc5Cl)noc4C4CC4)ccc32)CC1` (single isomer, unassigned) [Compound 20], the concentration for a half-maximal effect (EC50) came to 0.83 µM. For the same molecule, the “FXR enzyme activity Efficacy (activation efficacy percent)” value under setting [1] came out at 169%.
For `O=C(O)C1CC=C(N2C(=O)C3(CC3)c3cc(OCc4c(-c5c(Cl)cccc5Cl)noc4C4CC4)ccc32)CC1` (centres unmarked) [Compound 18], the EC50 was 0.66 µM. Further, the Emax under setting [1] turned out to be 142%.
Turning to `O=C(O)c1cncc(N2C(=O)C3(CC3)c3cc(OCc4c(-c5c(Cl)cccc5Cl)noc4C4CC4)ccc32)c1` [Compound 24], the EC50 came to 0.61 µM. Further, the Emax under setting [1] turned out to be 124%.
As to `O=C(O)c1ccc(CN2C(=O)C3(CC3)c3cc(OCc4c(-c5c(Cl)cccc5Cl)noc4C4CC4)ccc32)nc1` [Compound 22], the EC50 turned out to be 0.66 µM. Moreover, the Emax under setting [1] came to 200%.
In the case of `O=C(O)c1ccc(N2C(=O)CCc3cc(OCc4c(-c5c(Cl)cccc5Cl)noc4C4CC4)ccc32)nc1` [Compound 40], the EC50 worked out at 0.058 µM. The Emax under setting [2] was 117%.
As for `O=C(O)c1cccc(N2C(=O)CCc3cc(OCc4c(-c5c(Cl)cccc5Cl)noc4C4CC4)ccc32)c1` [Compound 41], the EC50 was 0.444 µM. In addition, the Emax under setting [2] amounted to 95%.
For `O=C(O)c1ccc(N2C(=O)CCc3cc(OCc4c(-c5c(Cl)cccc5Cl)noc4C4CC4)ccc32)c(Cl)c1` [Compound 36], in that order: 0.069 µM and 135%.
With `O=C(O)c1cnc(N2C(=O)CCc3cc(OCc4c(-c5c(Cl)cccc5Cl)noc4C4CC4)ccc32)s1` [Compound 38], the EC50 was 0.14 µM. Further, the Emax under setting [2] came out at 118%.
As for `O=C(O)c1ccc(CN2C(=O)C3(CC3)c3cc(OCc4c(-c5c(Cl)cccc5Cl)noc4C4CC4)ccc32)cc1` [Compound 2], the EC50 worked out at 0.29 µM. Further, the Emax under setting [1] came to 155%.
With `O=C(O)c1ccc(N2C(=O)C3(CC3)c3cc(OCc4c(-c5c(Cl)cccc5Cl)noc4C4CC4)ccc32)cc1F` [Compound 10], the EC50 is 1.03 µM. Also, under setting [1], the Emax is 312%.
Turning to `Cc1cc(C(=O)O)cnc1N1C(=O)CCc2cc(OCc3c(-c4c(Cl)cccc4Cl)noc3C3CC3)ccc21` [Compound 43], the EC50 was found to be 0.02 µM. For the same molecule, the Emax under setting [2] came to 153%.
With `O=C(O)c1csc(N2C(=O)CCc3cc(OCc4c(-c5c(Cl)cccc5Cl)noc4C4CC4)ccc32)c1` [Compound 45], the EC50 stood at 0.108 µM. Further, the Emax under setting [2] was found to be 117%.
Regarding `O=C(O)c1ccc(N2C(=O)CCc3cc(OCc4c(-c5c(Cl)cccc5Cl)noc4C4CC4)ccc32)s1` [Compound 46], the concentration giving a half-maximal response (EC50) was 0.083 µM. Further, the Emax under setting [2] was found to be 126%.
Regarding `O=C(O)c1ccc(N2C(=O)CCc3cc(OCc4c(-c5c(Cl)cccc5Cl)noc4C4CC4)ccc32)cc1` [Compound 33], the EC50 is 0.143 µM. Besides, the Emax under setting [2] was 127%.
For `Cn1cc(C(=O)O)c2ccc(N3C(=O)CCc4cc(OCc5c(-c6c(Cl)cccc6Cl)noc5C5CC5)ccc43)cc21` [Compound 31], in that order: 0.043 µM and 115%.
On to `O=C(O)c1ccc(N2C(=O)C3(CC3)c3ccc(OCc4c(-c5c(Cl)cccc5Cl)noc4C4CC4)cc32)cc1` [Compound 12], for which the EC50 stood at 1.76 µM. Moreover, under setting [1], the Emax is 33%.
On to `O=C(O)c1ccc(N2C(=O)C3(CC3)c3cc(OCc4c(-c5c(Cl)cccc5Cl)noc4C4CC4)ccc32)cc1` [Compound 6], for which the EC50 came out at 0.1 µM. The Emax under setting [1] was found to be 169%.
As to `O=C(O)c1cccc(N2C(=O)C3(CC3)c3cc(OCc4c(-c5c(Cl)cccc5Cl)noc4C4CC4)ccc32)c1` [Compound 7], the EC50 came out at 0.24 µM. For the same molecule, the Emax under setting [1] is 144%.
For `O=C(O)c1cccc(CN2C(=O)C3(CC3)c3cc(OCc4c(-c5c(Cl)cccc5Cl)noc4C4CC4)ccc32)c1` [Compound 1], the concentration giving a half-maximal response (EC50) is 0.2 µM. Moreover, the Emax under setting [1] stood at 156%.
For `O=C(O)c1ccc(N2C(=O)C3(CC3)c3cc(OCc4c(-c5c(Cl)cccc5Cl)noc4C4CC4)ccc32)cc1Cl` [Compound 25], in that order: 0.41 µM and 130%.
For `O=C(O)c1cccc(CN2C(=O)C3(CCCC3)c3cc(OCc4c(-c5c(Cl)cccc5Cl)noc4C4CC4)ccc32)c1` [Compound 11], the EC50 was found to be 0.58 µM. Moreover, the Emax under setting [1] stood at 82%.
For the molecule `COc1cc(C(=O)O)ccc1N1C(=O)CCc2cc(OCc3c(-c4c(Cl)cccc4Cl)noc3C3CC3)ccc21` [Compound 44], the EC50 came out at 0.058 µM. Moreover, under setting [2], the Emax was 117%.
With `O=C(O)c1ccc(N2C(=O)C3(CC3)c3cc(OCc4c(-c5c(Cl)cccc5Cl)noc4C4CC4)ccc32)s1` [Compound 5], the EC50 worked out at 0.15 µM. Further, the Emax under setting [1] turned out to be 242%.
Consider `O=C(O)c1ccc(N2C(=O)C3(CC3)c3cc(OCc4c(-c5ccccc5OC(F)(F)F)noc4C4CC4)ccc32)cc1` [Compound 28], for which the concentration for a half-maximal effect (EC50) is 0.65 µM. For the same molecule, the Emax under setting [1] was found to be 186%.
Consider `CC1(C)C(=O)N(c2cccc(C(=O)O)c2)c2ccc(OCc3c(-c4c(Cl)cccc4Cl)noc3C3CC3)cc21` [Compound 15], for which the EC50 turned out to be 0.23 µM. The Emax under setting [1] came out at 152%.
For `O=C(O)CCCN1C(=O)C2(CC2)c2cc(OCc3c(-c4c(Cl)cccc4Cl)noc3C3CC3)ccc21` [Compound 16], in that order: 3.39 µM and 151%.

(Values after US11339147B2, “Lactam compound as FXR receptor agonist” (CSPC ZHONGQI PHARMACEUTICAL TECHNOLOGY (SHIJIAZHUANG) CO., …, priority 2017, dated 2022).)
